Like-named read-outs stand apart in the source and are kept apart here.
Assays:
[1] = biological target: AM2 S31N (serine→asparagine mutation at residue 31 in the M2 protein) (Influenza A virus, UniProt P0DOF5, S31N); assay type: cell-based, influenza virus A/Udorn/72
[2] = biological target: AM2 V27A (valine→alanine mutation at residue 27 in the M2 protein) (Influenza A virus, UniProt P0DOF5, V27A); assay type: cell-based, influenza virus A/Udorn/72

Row | Compound | S31N OOcyte Inhibition at 100 uM (%) ([1]; pH 5.5) | V27A OOcyte Inhibition at 100 uM (%) ([2]; pH 5.5) | S31N OOcyte Inhibition at 100 uM (%) [1] | V27A OOcyte Inhibition at 100 uM (%) [2]
1 | O=[N+]([O-])c1ccccc1CNC12CC3CC(CC(C3)C1)C2 [Example 30, Adamantan-1-yl-(2-nitro-benzyl)-amine] | B (key: (A)=31-95%; (B)=0-30%) | B (key: (A)=31-95%; (B)=0-30%) |  | 
2 | c1cc(CNC23CC4CC(CC(C4)C2)C3)cc(-c2ccco2)c1 [Example 30a, N-(3-(Furan-2-yl)benzyl)adamantan-1-amine] |  |  | B (key: (A)=31-95%; (B)=0-30%) | A (key: (A)=31-95%; (B)=0-30%)
3 | Oc1cccc(CNC23CC4CC(CC(C4)C2)C3)c1 [Example 31, 3-(Adamantan-1-ylaminomethyl)-phenol] | B (key: (A)=31-95%; (B)=0-30%) | A (key: (A)=31-95%; (B)=0-30%) |  | 
4 | c1coc(-c2ccc(CNC34CC5CC(CC(C5)C3)C4)cc2)c1 [Example 31a, N-(4-(Furan-2-yl)benzyl)adamantan-1-amine] |  |  | A (key: (A)=31-95%; (B)=0-30%) | B (key: (A)=31-95%; (B)=0-30%)
5 | COc1ccc(CN(C)C23CC4CC(CC(C4)C2)C3)cc1 [Example 32, Adamantan-1-yl-(4-methoxy-benzyl)-methyl-amine] | B (key: (A)=31-95%; (B)=0-30%) | B (key: (A)=31-95%; (B)=0-30%) |  | 
6 | Cc1ccc(-c2ccc(CNC34CC5CC(CC(C5)C3)C4)cc2)o1.Cl [Example 32a, N-(4-(5-Methylfuran-2-yl)benzyl)adamantan-1-amine hydrochloride] |  |  | A (key: (A)=31-95%; (B)=0-30%) | B (key: (A)=31-95%; (B)=0-30%)
7 | CC(=O)Oc1ccc(CNC23CC4CC(CC(C4)C2)C3)cc1 [Example 33, Acetic acid 4-(adamantan-1-ylaminomethyl)-phenyl ester] | A (key: (A)=31-95%; (B)=0-30%) | B (key: (A)=31-95%; (B)=0-30%) |  | 
8 | Cc1noc(C)c1-c1ccc(CNC23CC4CC(CC(C4)C2)C3)cc1 [Example 33a, N-(4-(3,5-Dimethylisoxazol-4-yl)benzyl)adamantan-1-amine] |  |  | B (key: (A)=31-95%; (B)=0-30%) | B (key: (A)=31-95%; (B)=0-30%)
9 | O=C(Oc1ccc(CNC23CC4CC(CC(C4)C2)C3)cc1)C1CC1 [Example 34, Cyclopropanecarboxylic acid 4-(adamantan-1-ylaminomethyl)-phenyl ester] | B (key: (A)=31-95%; (B)=0-30%) | B (key: (A)=31-95%; (B)=0-30%) |  | 
10 | c1cc(CNC23CC4CC(CC(C4)C2)C3)cc(-c2cccs2)c1 [Example 34a, N-(3-(thiophen-2-yl)benzyl)adamantan-1-amine] |  |  | B (key: (A)=31-95%; (B)=0-30%) | A (key: (A)=31-95%; (B)=0-30%)
11 | c1cnn(-c2ccc(CNC34CC5CC(CC(C5)C3)C4)cc2)c1 [Example 35, Adamantan-1-yl-(4-pyrazol-1-yl-benzyl)-amine] | B (key: (A)=31-95%; (B)=0-30%) | B (key: (A)=31-95%; (B)=0-30%) |  | 
12 | c1cn(-c2ccc(CNC34CC5CC(CC(C5)C3)C4)cc2)cn1 [Example 36, Adamantan-1-yl-(4-imidazol-1-yl-benzyl)-amine] | B (key: (A)=31-95%; (B)=0-30%) | B (key: (A)=31-95%; (B)=0-30%) |  | 
13 | O=C(Oc1ccc(CNC23CC4CC(CC(C4)C2)C3)cc1)c1cccs1 [Example 37, Thiophene-2-carboxylic acid 4-(adamantan-1-ylaminomethyl)-phenyl ester] | A (key: (A)=31-95%; (B)=0-30%) | B (key: (A)=31-95%; (B)=0-30%) |  | 
14 | Oc1cc(OCc2ccccc2)ccc1CNC12CC3CC(CC(C3)C1)C2 [Example 37a, 2-(Adamantan-1-ylaminomethyl)-5-benzyloxy-phenol] |  |  | A (key: (A)=31-95%; (B)=0-30%) | B (key: (A)=31-95%; (B)=0-30%)
15 | CN(CCC#N)c1ccc(CNC23CC4CC(CC(C4)C2)C3)cc1 [Example 38, 3-((4-((Adamantan-1-ylamino)methyl)phenyl)(methyl)amino)propanenitrile] | A (key: (A)=31-95%; (B)=0-30%) | B (key: (A)=31-95%; (B)=0-30%) |  | 
16 | c1ccc2cc(COc3ccc(CNC45CC6CC(CC(C6)C4)C5)cc3)ccc2c1 [Example 38a, N-(4-(naphthalen-2-ylmethoxy)benzyl)adamantan-1-amine] |  |  | B (key: (A)=31-95%; (B)=0-30%) | B (key: (A)=31-95%; (B)=0-30%)
17 | NC(=O)COc1ccc(CNC23CC4CC(CC(C4)C2)C3)cc1 [Example 39, 2-(4-((Adamantan-1-ylamino)methyl)phenoxy)acetamide] | B (key: (A)=31-95%; (B)=0-30%) | B (key: (A)=31-95%; (B)=0-30%) |  | 
18 | c1cnc2ccc(CNC34CC5CC(CC(C5)C3)C4)cc2c1 [Example 39a, Adamantan-1-yl-quinolin-6-ylmethyl-amine] |  |  | A (key: (A)=31-95%; (B)=0-30%) | B (key: (A)=31-95%; (B)=0-30%)

Row | Compound | S31N OOcyte Inhibition at 100 uM (%) ([1]; pH 5.5) | V27A OOcyte Inhibition at 100 uM (%) ([2]; pH 5.5) | S31N OOcyte Inhibition at 100 uM (%) [1] | V27A OOcyte Inhibition at 100 uM (%) [2]
19 | c1nc(-c2ccc(CNC34CC5CC(CC(C5)C3)C4)cc2)no1 [Example 40, Adamantan-1-yl-(4-[1,2,4]oxadiazol-3-yl-benzyl)-amine] | A (key: (A)=31-95%; (B)=0-30%) | B (key: (A)=31-95%; (B)=0-30%) |  | 
20 | COc1ccc2cc(CNC34CC5CC(CC(C5)C3)C4)ccc2c1 [Example 40a, Adamantan-1-yl-(6-methoxy-naphthalen-2-ylmethyl)-amine] |  |  | B (key: (A)=31-95%; (B)=0-30%) | A (key: (A)=31-95%; (B)=0-30%)
21 | Brc1ccc(CNC23CC4CC(CC(C4)C2)C3)cc1 [Example 41, N-(4-Bromobenzyl)adamantan-1-amine] | A (key: (A)=31-95%; (B)=0-30%) | B (key: (A)=31-95%; (B)=0-30%) |  | 
22 | c1cc2cc(CNC34CC5CC(CC(C5)C3)C4)ccc2s1 [Example 41a, N-(benzo[b]thiophen-5-ylmethyl)adamantan-1-amine] |  |  | B (key: (A)=31-95%; (B)=0-30%) | A (key: (A)=31-95%; (B)=0-30%)
23 | c1cc(-c2ccc(CNC34CC5CC(CC(C5)C3)C4)cc2)co1 [Example 42, N-(4-(Furan-3-yl)benzyl)adamantan-1-amine] | A (key: (A)=31-95%; (B)=0-30%) | B (key: (A)=31-95%; (B)=0-30%) |  | 
24 | O=c1ccc2cc(CNC34CC5CC(CC(C5)C3)C4)ccc2o1 [Example 42a, 6-((adamantan-1-ylamino)methyl)-2H-chromen-2-one] |  |  | B (key: (A)=31-95%; (B)=0-30%) | B (key: (A)=31-95%; (B)=0-30%)
25 | CC(=O)c1sccc1-c1ccc(CNC23CC4CC(CC(C4)C2)C3)cc1 [Example 43, 1-(3-(4-((Adamantan-1-ylamino)methyl)phenyl)thiophen-2-yl)ethanone] | A (key: (A)=31-95%; (B)=0-30%) | A (key: (A)=31-95%; (B)=0-30%) |  | 
26 | c1csc(-c2ccc(CNC34CC5CC(CC(C5)C3)C4)cc2)c1 [Example 44, N-(4-(Thiophen-2-yl)benzyl)adamantan-1-amine] | A (key: (A)=31-95%; (B)=0-30%) | B (key: (A)=31-95%; (B)=0-30%) |  | 
27 | CC(=O)c1ccc(CNC23CC4CC(CC(C4)C2)C3)cc1 [Example 44a] |  |  | B (key: (A)=31-95%; (B)=0-30%) | B (key: (A)=31-95%; (B)=0-30%)
28 | Oc1ccc(CNC23CC4CC(CC(C4)C2)C3)cc1O [Example 45, 4-(Adamantan-1-ylaminomethyl)-benzene-1,2-diol] | B (key: (A)=31-95%; (B)=0-30%) | A (key: (A)=31-95%; (B)=0-30%) |  | 
29 | O=C1CCCN1c1ccc(CNC23CC4CC(CC(C4)C2)C3)cc1 [Example 45a, 1-(4-((adamantan-1-ylamino)methyl)phenyl)pyrrolidin-2-one] |  |  | A (key: (A)=31-95%; (B)=0-30%) | B (key: (A)=31-95%; (B)=0-30%)
30 | Oc1ccc(CNC23CC4CC(CC(C4)C2)C3)c(O)c1 [Example 46, 4-(Adamantan-1-ylaminomethyl)-benzene-1,3-diol] | A (key: (A)=31-95%; (B)=0-30%) | A (key: (A)=31-95%; (B)=0-30%) |  | 
31 | Oc1ccc(CNC23CC4CC(CC(C4)C2)C3)cc1Cl [Example 47, 4-(Adamantan-1-ylaminomethyl)-2-chloro-phenol] | B (key: (A)=31-95%; (B)=0-30%) | A (key: (A)=31-95%; (B)=0-30%) |  | 
32 | Oc1cc(-c2ccccc2)ccc1CNC12CC3CC(CC(C3)C1)C2 [Example 47a, 4-(Adamantan-1-ylaminomethyl)-biphenyl-3-ol] |  |  | A (key: (A)=31-95%; (B)=0-30%) | B (key: (A)=31-95%; (B)=0-30%)
33 | Oc1ccc(CNC23CC4CC(CC(C4)C2)C3)cc1F [Example 48, 4-(Adamantan-1-ylaminomethyl)-2-fluoro-phenol] | A (key: (A)=31-95%; (B)=0-30%) | A (key: (A)=31-95%; (B)=0-30%) |  | 
34 | Oc1cc(-c2cc3ccccc3o2)ccc1CNC12CC3CC(CC(C3)C1)C2 [Example 48a] |  |  | B (key: (A)=31-95%; (B)=0-30%) | B (key: (A)=31-95%; (B)=0-30%)
35 | c1cc2c(cc1CNC13CC4CC(CC(C4)C1)C3)OCO2 [Example 49] | B (key: (A)=31-95%; (B)=0-30%) | B (key: (A)=31-95%; (B)=0-30%) |  | 
36 | COc1cc(CNC23CC4CC(CC(C4)C2)C3)ccc1O [Example 50, 4-(Adamantan-1-ylaminomethyl)-2-methoxy-phenol] | B (key: (A)=31-95%; (B)=0-30%) | A (key: (A)=31-95%; (B)=0-30%) |  | 

Reference: patent publication US9884832B2 (priority 2011, dated 2018)
